Data published in patent publication US6011000A, “Compositions for the treatment of blood disorders” (priority 1995, dated 2000).
Read-outs that look alike come from different tables or passages of the source.

How the values were obtained:
anemic baboon = assay: In vivo reticulocyte proliferation, globin expression and blood counts in anemic (phlebotomized) baboons
Experimental: Experiments were performed to determine if administration of the chemical compositions could induce fetal globin gene expression in an in vivo model similar to humans (S. P. Perrine et al., Brit. J. Haematol. 88:555-61, 1994). Briefly, chemicals were prepared as sterile pharmaceutical solutions in pH adjusted sterile water. A variety of chemical compositions were administered sequentially to some baboons. After administration of one compound, a wash-out period with no compound administration was maintained until reticulocytes returned to base line prior to administration of the next compound. This was done, at least partly, to compare the magnitude of response which occurred within the same individual animal to different compounds.
Briefly, juvenile female baboons (2 years old) were catheterized with arterial and venous catheters and phlebotomized gradually every day to maintain a moderate anemia of 7.0 to 7.5 grams hemoglobin/dl. Fetal reticulocytes, the newly produced red blood cells containing fetal globin, were assayed using a monoclonal antibody against fetal globin (HbF) as described by G. Dover et al. (Blood 67:735-38, 1986). Briefly, blood was stained with two antibodies, one specific for reticulocytes and another against fetal globin protein. The amount of antibody bound cells was determined by FACS analysis. Globin chain synthesis was assayed as described by J. B. Clegg et al. (J. Mol. Biol. 19:91-108, 1966). Briefly, reticulocytes were radio-labeled with ^3 H-leucine which was incorporated in equal proportions into actively synthesized globin chains. After incubation in leucine-free media, cells were washed, and globin proteins were separated and purified by column chromatography. Radioactivity incorporated into each peak is compared and the ratios of gamma to gamma plus beta globin calculated. Each animal served as its own control with baseline monitoring assays performed for 4-6 weeks before any drug was administered. Phlebotomy was continued daily, so that peripheral HbF levels in the animals were not considered to be accurate over the short treatment time-frames and were not monitored. Safety monitoring was performed by frequent physical examinations, quantitation of food eaten, activity and frequent chemistry and hematology monitoring. Complete blood counts were assayed before, during and after treatment. Results presented were not adjusted to account for the daily phlebotomy.

[1] = test system: fetal globin (gamma globin); assay: Fetal globin expression in erythroid progenitor cells from cord blood; format: cell-based, human; settings: for Gamma/(Gamma + Beta): Exp. B, 12-13 days, untreated 25.4%, 27.5%
Experimental: Compositions were tested for activity in inducing fetal globin expression and protein production in erythroid progenitor cells cultured from human cord blood and analyzed as described by S. P. Perrine et al. (Blood 74: 454-60, 1989). Briefly, mononuclear cells were cultured in IMDM with 30% fetal calf serum and 2 units erythropoietin per ml to induce erythroid differentiation. Colonies were harvested on day 12-13, incubated with radio-labelled (^3 H) leucine, and further incubated in leucine-free media, still in the presence of compounds, overnight. Globin composition in the erythroid cells was analyzed by laser densitometry of electrophoretically separated globin chains stained with Coomassie blue, and by autoradiography. Treated cells were incubated for 12-13 days (Table 2, Experiments A and B) or overnight (Table 2, Experiment C) in the presence of the indicated compounds and compared to untreated control cells cultured from the same human subject.

[2] = test system: fetal globin (cultured erythroid progenitor cells); settings: cited from earlier work
[3] = test system: system A transport (K562 cells and nucleated erythroblasts from fetal liver); assay: Effects on system A amino acid transport (3H-MAIB uptake); format: cell-based, human
Experimental: Inhibition of nutrient uptake is undesirable for treatment of anemias. Methyl aminoisobutyric acid (MAIB) labeled with tritium (^3 H) is normally taken up by system A amino acid transport. Cold (unlabeled) compounds were added to cultures containing ^3 H-MAIB and incubated for 1 hour. Cells were harvested and the amount of ^3 H taken up by cells was quantitated by scintillation counting.

fetal globin production = settings: cited from earlier work
[4] = test system: proximal promoter of the gamma globin gene (K562 cells); assay: Gamma globin promoter-neomycin transfection (61 bp proximal promoter), G418-resistant colonies; format: cell-based, human; settings: 1 mM, 8 weeks in G418
Experimental: Gamma globin promoter-neomycin transfection experiments were performed to determine if compounds act by inducing an increase in activity from the proximal promoter of the gamma globin gene. Constructs containing 61 bp of the proximal gamma globin promoter were linked to the reporter gene for neomycin phosphotransferase (NEO) and transfected into permissive K562 cells by electroporation. After 18 hours, transfected cells were passed at 10^3 cells per well into RPMI media containing G418 (neomycin), which kills all mammalian cells unless the gene for NEO is expressed. Phenoxyacetic acid and thiophenoxyacetic acid were added to some of the cells plated into the RPMI/G418 media at concentrations of 1 mM. Cultures were incubated for 8 weeks with media changes performed as needed. Colonies which survived and grew in the presence of G418 were scored and the number of such colonies was compared to those generated when the cells were plated into G418 media without the test compounds. […] There was a greater than 6-fold (>600%) increase in proportions of colonies surviving the presence of phenoxyacetic acid (6/24 wells) and a three-fold (300%) increase in survival in the presence of thiophenoxyacetic acid (3/24 wells).

[5] = test system: fetal globin mRNA (human erythroleukemia cells); assay: Fetal globin mRNA in erythroleukemia cells (primer extension); format: cell-based
Experimental: Compounds were tested for increased expression of the human globin genes in human erythroid cells. In addition, as the cell line being tested is a tumor cell line, the assay determines if differentiation, a growth inhibitory effect on cancer cells, is induced by the compounds tested. Human erythroleukemia cells were cultured in RPMI media with 10% fetal calf serum alone or with treatment with various compounds for 4 days. Globin MRNA was quantitated by primer extension analysis. Fetal globin mRNA was compared to the amount of fetal globin mRNA produced in untreated cells during the same culture period. The quantitation was expressed as a percent of alpha globin MRNA which was constant. Results are expressed proportional to α-globin mRNA (Table 3).

## CCCC(=O)OCC(COC(=O)CCC)OC(=O)CCC [tributyrin]
Anemic baboon; 500 to 750 mg/kg per day i.v., 3 days, from 0%
  Gamma globin expression: about 2.2 % of total non-alpha globin expression
Anemic baboon; 500 to 750 mg/kg per day i.v., 3 days, from 10%
  Fetal reticulocytes: 14%

## CC(CO)C(N)=O (stereo not shown) [MHPP, 2 methyl-3-hydroxypropionamide]
[1]; 0.05 mM
  Gamma/(Gamma + Beta): 29.8%
[1]; 1.0 mM
  Gamma/(Gamma + Beta): 24.0%
[1]; concentrations above 0.25 mM (FIG. 4)
  expression of fetal globin: decreased the expression of fetal globin
[1]; concentrations below 0.25 mM
  fetal globin expression: increased fetal globin expression

## O=C(O)CCCc1ccccc1 [4-phenyl butyrate]
[2]
  fetal globin expressing reticulocyte proliferation: decrease fetal globin expressing reticulocyte proliferation
  relative proportions of fetal globin per cell: increase relative proportions of fetal globin per cell

## CC(=Cc1ccccc1)C(=O)O [α-methyl cinnamic acid]
[3]
  system A (neutral) amino acid transport: do not significantly alter system A transport of amino acids

## CC(Cc1ccccc1)C(=O)O (stereo not drawn) [α-methyl hydrocinnamic acid]
[3]; 1 hour, 3H-MAIB (FIG. 12)
  system A (neutral) amino acid transport: caused no significant inhibition and actually increased uptake of nutrients into cells
Anemic baboon; baboons
  production of blood cell types: stimulated production of many different cell types
Anemic baboon; first baboon, infusion 500-1,000 mg/kg, 5 days, from 2.28
  red blood cell count: 3.53 10^6 red blood cells per microliter
Anemic baboon; first baboon, infusion 500-1,000 mg/kg, 5 days, from 4.1
  white blood cell count: 11.5
Anemic baboon; first baboon, infusion 500-1,000 mg/kg, 5 days, from 5.6%
  total number of reticulocytes: 11%
Anemic baboon; first baboon, infusion 500-1,000 mg/kg, 5 days, from 6.4
  total hemoglobin after treatment: 7.9 grams/dl
Anemic baboon; first baboon, infusion 500-1,000 mg/kg, 5 days, from 19.5%
  packed red blood cell volume: 31.2 % of total blood volume
Anemic baboon; first baboon, infusion 500-1,000 mg/kg, 5 days, from 26.7
  platelet count: 46.8 10^4 cells/μl
Anemic baboon; first baboon, infusion 500-1,000 mg/kg, 5 days, over 3 days
  rise in total hemoglobin: 1.5 grams/dl
Anemic baboon; second baboon, 500-700 mg/kg, 5 days
  rise in total hemoglobin: 1.4 grams
Anemic baboon; second baboon, 500-700 mg/kg, 5 days, from 2.3×10^6
  Red blood cell counts: 2.82×10^6
Anemic baboon; second baboon, 500-700 mg/kg, 5 days, from 4.6
  Total hemoglobin: 6.0 g/dL
Anemic baboon; second baboon, 500-700 mg/kg, 5 days, from 14.5%
  packed red blood cell volume: 20.2%
Anemic baboon; second baboon, 500-700 mg/kg, 5 days, from 8,700
  White blood cell counts (maximum): 14,300
Anemic baboon; second baboon, 500-700 mg/kg, 5 days, from 328,000
  platelet counts (high): 486,000
Anemic baboon; second baboon, 500-700 mg/kg, after 5 days, from 4.0%
  Total fetal globin synthesis: 10.8%
Anemic baboon; third baboon, same dose, 5 days
  adverse effects: No adverse affects were observed
Anemic baboon; third baboon, same dose, 5 days, from 0%
  Fetal globin protein synthesis: 6.2 % of non-alpha globin
Anemic baboon; third baboon, same dose, after 5 days (FIG. 8), from 0%
  fetal hemoglobin producing reticulocytes: 10%

## CC(=O)Oc1ccccc1 [Phenyl acetate]
[2]
  fetal globin expressing reticulocyte proliferation: decrease fetal globin expressing reticulocyte proliferation
  relative proportions of fetal globin per cell: increase relative proportions of fetal globin per cell

## CCCC(=O)[O-].[Na+] [sodium butyrate]
Fetal globin production
  stimulation of fetal globin production: effective in stimulating fetal globin production

## CCC(N)C(=O)O (stereo not drawn) [α-amino-n-butyric acid]
Fetal globin production
  stimulation of fetal globin production: effective in stimulating fetal globin production

## O=C(O)CSc1ccccc1 [thiophenoxyacetic acid]
[4]
  increase in proportions of colonies surviving: three-fold
[4]; none of 24 wells without compound
  colonies surviving: 3/24
[4]; Homo sapiens, K562, 1344 h, read-out: increase in proportions of colonies surviving
  activation at 1000 µM: 300%

## CCCC(=O)OCC(O)CO (stereo not shown) [MB, monobutyrin]
[5]
  induction of fetal globin mRNA: significantly increased the induction of fetal globin MRNA
[5]; 1.0 mM, 4 days
  Gamma Globin mRNA (increase): 26%
[5]; 1.0 mM, 4 days, untreated 0.46
  Gamma/Alpha: 0.73
Anemic baboon; 500 to 2,000 mg/kg i.v. daily, 4 days
  increase in fetal reticulocytes above basal levels: 220%
Anemic baboon; 500 to 2,000 mg/kg i.v. daily, 4 days, from 12%
  Fetal reticulocytes: 27%
